Assay results as given in the CheMixHub viscosity set.

Assay: xn = mol fraction of the nth substance listed
Settings: 100 kPa

CC/C=C\CCO + CCCCCC
viscosity [mPa·s]
Settings | 293.15 K | 298.15 K | 303.15 K | 308.15 K | 313.15 K | 318.15 K
x1 = 0.025 | 0.3277 | 0.3128 | 0.3002 | 0.2869 | 0.2756 | 0.2648
x1 = 0.0501 | 0.3397 | 0.3264 | 0.3121 | 0.2966 | 0.2844 | 0.2727
x1 = 0.1 | 0.3655 | 0.3504 | 0.3343 | 0.3164 | 0.3024 | 0.2892
x1 = 0.2001 | 0.4403 | 0.4139 | 0.392 | 0.369 | 0.3498 | 0.3318
x1 = 0.2999 | 0.5582 | 0.5227 | 0.4881 | 0.4558 | 0.4197 | 0.3967
x1 = 0.4003 | 0.6649 | 0.6196 | 0.5788 | 0.5377 | 0.497 | 0.467
x1 = 0.4994 | 0.8527 | 0.7851 | 0.7244 | 0.6686 | 0.6173 | 0.5715
x1 = 0.5998 | 1.103 | 1.005 | 0.9179 | 0.8404 | 0.7733 | 0.7131
x1 = 0.6998 | 1.451 | 1.306 | 1.18 | 1.07 | 0.978 | 0.889
x1 = 0.7995 | 1.878 | 1.701 | 1.522 | 1.366 | 1.238 | 1.126
x1 = 0.8996 | 2.51 | 2.234 | 1.981 | 1.763 | 1.58 | 1.429
